Values after ≈ are worked out from the molar mass of the structure shown. Where two headings read alike, the source gives them in different places.
Experiments:
Format in all cases: physicochemical
[1] = Karl Fischer coulometric titration (water content)
Procedure: In the examples below, KF titration measured using either an In Motion KF Autosampler or Direct Addition Method. The In Motion KF Autosampler was carried out via the following procedure. 15-20 mg of solid was weighed into a 10 mL glass vial and tightly sealed with a screw cap. Samples were analyzed using a Mettler Toledo C30SX and an InMotion KFOven Autosampler at 130° C. Samples were analyzed in duplicate and an average moisture content reported. See table below for further details.
The Direct Addition Method was carried out via the following procedure. 15-20 mg of solid material was accurately weighed into a vial. The solid was then manually introduced into the titration cell of a Mettler Toledo C30 Compact Titrator. The vial was back-weighed after the addition of the solid and the weight of the added solid entered on the instrument. Titration was initiated once the sample had fully dissolved in the cell. The water content was calculated automatically by the instrument as a percentage and the data printed.

[2] = pH solubility studies in buffers and biorelevant media (Example 16); details: for solubility at 24 h: thermodynamic from solid
Procedure: Example 16—pH Solubility Studies—(1) Crystalline Form 2 Compound 1 di(hydrogen sulfate) trihydrate, (2) Crystalline Form 3 Compound 1 di(hydrogen sulfate), and (3) Crystalline Form 4 Compound 1 mono(hydrogen sulfate): pH solubility studies were carried out on the prepared crystalline Form 2 Compound 1 di(hydrogen sulfate) trihydrate, crystalline Form 3 Compound 1 di(hydrogen sulfate) and crystalline Form 4 Compound 1 mono(hydrogen sulfate) in the following media: (1) HCl/KCl, pH 1.2; (2) Acetate, pH 4.5; (3) Phosphate, pH 6.8; (4) FaSSIF; (5) FeSSIF; and (6) FaSSGF. Slurries of the hydrogen sulfate forms were prepared in the appropriate medium and stirred at 25° C. For the experiments in the buffer media, the pH of the slurry samples was measured and adjusted as required after 1 hour and 23 hours of the slurrying. Additional solid was added where dissolution was observed post-adjustment. The pH of the samples in the biorelevant media was measured at the 23 hour timepoint. No pH adjustment was made for the biorelevant media. After a total of 24 hours of slurrying, the mother liquors were extracted via centrifugation, and the concentrations and solution purity were determined by HPLC. The residual solids were isolated and analyzed by XRPD and are shown in FIG. 77, FIG. 78, and FIG. 79. The assessment was repeated for some of the samples, where required.

[3] = seven-day solid stability studies (ambient; 40° C./75% RH; 80° C.), XRPD and HPLC; details: for 7-day Stability studies: solid form: all conditions
Procedure: In the experiment, one set of vials was exposed to ambient light, temperature and humidity conditions. Another was exposed openly to 40° C. and 75% RH conditions and a third was sealed and exposed to 80° C. conditions. After 7 days, XRPD and HPLC measurements were collected.
Example 12-Stability Studies of Amorphous Compound 1 (free base) and Crystalline Form 1 Compound 1 (free base): Seven-day stability studies were carried out comparing amorphous Compound 1 (free base) and crystalline Form 1 Compound 1 (free base) at 40° C./75% RH, under ambient conditions and at 80° C. After storage at 40° C./75% RH and 80° C., the amorphous material formed glassy solids which were pale yellow (40° C./75% RH) or orange (80° C.). It is likely that the material melted and re-solidified at 80° C. and deliquesced at 40° C./75% RH. […] (decrease in purity of ca. 11% area).
Example 15-Stabilities Studies-Crystalline Form 3 Compound 1 di(hydrogen sulfate) and Crystalline Form 4 Compound 1 mono(hydrogen sulfate): Seven-day stability studies were carried out on the prepared crystalline Form 3 Compound 1 di(hydrogen sulfate) and crystalline Form 4 Compound 1 mono(hydrogen sulfate) using the following conditions: (1) Ambient light, temperature and humidity conditions (open vial); (2) 40° C./75% RH (open vial); and (3) 80° C. (closed vial). After 7 days of storage under the specified conditions, XRPD and HPLC analyses were carried out on the residual solid materials, and the results are summarized in Table 51.
Example 18-Seven Day Stability Study on Crystalline Form 2 Compound 1 di(hydrogen sulfate) trihydrate: A 7-day stability study was conducted on crystalline Form 2 Compound 1 di(hydrogen sulfate) trihydrate using the following conditions: (1) ambient light, temperature, and humidity conditions (open vial); (2) 40° C., 75% RH (open vial); and (3) 80° C. (closed vial). After 7 days of storage under the specified, XRPD and HPLC analyses were carried out on the residual solid materials.

[4] = after 24 hours slurrying in the media (Form 2: all samples except pH 4.5 Attempt 1)
[5] = 7 days, 40° C./75% RH (open vial)
[6] = FaSSGF, 25° C., 24 h, pH after 24 h 1.98
[7] = FaSSIF, 25° C., 24 h, pH after 24 h 3.93
[8] = FeSSIF, 25° C., 24 h, pH after 24 h 4.34
[9] = pH 1.2 (HCl/KCl), 25° C., 24 h, pH after 24 h 1.57→1.33
[10] = pH 4.5 (Acetate), 25° C., 24 h, pH after 24 h 4.43
[11] = pH 6.8 (Phosphate), 25° C., 24 h, pH after 24 h 5.19→6.94

## CCCN1CCNCCCNC(=O)c2cc(OC)c(OC)c(c2)OCCC[C@@H](OC(=O)c2cc(OC)c(OC)c(OC)c2)CC1
[1]
  KF moisture content: 6.74% moisture
[2]; FaSSGF, 25° C., 24 h, pH after 24 h 0.93
  ML purity: 99.67 % area
[2]; FaSSGF, 25 °C, pH 0.93, fassgf or other biorelevant, FaSSGF, 25° C., 24 h, pH after 24 h 0.93, read-out: Solub.
  solubility at 24 h: 81.1 mg/mL (≈ 128 mM)
[2]; FaSSIF, 25° C., 24 h, pH after 24 h 1.12
  ML purity: 99.80 % area
[2]; FaSSIF, 25 °C, pH 1.12, fassif, FaSSIF, 25° C., 24 h, pH after 24 h 1.12, read-out: Solub.
  solubility at 24 h: 76.6 mg/mL (≈ 121 mM)
[2]; FeSSIF, 25° C., 24 h, pH after 24 h 1.07
  ML purity: 99.72 % area
[2]; FeSSIF, 25 °C, pH 1.07, fessif, FeSSIF, 25° C., 24 h, pH after 24 h 1.07, read-out: Solub.
  solubility at 24 h: 133 mg/mL (≈ 211 mM)
[2]; HCl/KCl buffer, 25 °C, pH 1.2, simulated gastric fluid, pH 1.2 (HCl/KCl), attempt 1, 25° C., 24 h, pH after 24 h 0.98→1.22, read-out: Solub.
  solubility at 24 h: > 86.7 mg/mL
[2]; acetate buffer pH 4.5, 25 °C, pH 4.5, aqueous buffer, pH 4.5 buffer media, Attempt 1, 25° C., 24 hours, read-out: solubility
  solubility at 24 h: < 20 mg/mL
[2]; acetate buffer, 25 °C, pH 4.5, aqueous buffer, pH 4.5 (Acetate), attempt 1, 25° C., 24 h, pH after 24 h 4.53, read-out: Solub.
  solubility at 24 h: 17.8 mg/mL (≈ 28.2 mM)
[2]; acetate buffer, 25 °C, pH 4.5, aqueous buffer, pH 4.5 (Acetate), attempt 2, 25° C., 24 h, pH after 24 h 1.68→4.62, read-out: Solub.
  solubility at 24 h: 94.5 mg/mL (≈ 150 mM)
[2]; [4]
  solution purity of the extracted mother liquors: > 99 % area
[2]; buffers and biorelevant media, 25 °C, pH 1.2, aqueous buffer, pH 1.2 and 4.5 buffers and all the biorelevant media, slurry 25° C., 24 hours, read-out: solubility
  solubility at 24 h: > 75 mg/mL
[2]; pH 1.2
  pH solubility: pH 1.2: >87 mg/mL
  pH solubility: residual solid: mg/mL, no solid
[2]; pH 1.2 (HCl/KCl), attempt 1, 25° C., 24 h, pH after 24 h 0.98→1.22
  ML purity: 99.13 % area
[2]; pH 4.5
  pH solubility: pH 4.5: 95 mg/mL
  pH solubility: residual solid: mg/mL, Form 4
[2]; pH 4.5 (Acetate), attempt 1, 25° C., 24 h, pH after 24 h 4.53
  ML purity: 89.50 % area
[2]; pH 4.5 (Acetate), attempt 2, 25° C., 24 h, pH after 24 h 1.68→4.62
  ML purity: 99.76 % area
[2]; pH 4.5 Attempt 1
  solution purity of the extracted mother liquors: 89 % area
[2]; pH 6.8
  pH solubility: pH 6.8: 12 mg/mL
  pH solubility: residual solid: mg/mL, Gum
[2]; pH 6.8 (Phosphate), attempt 1, 25° C., 24 h, pH after 24 h 1.01→6.87
  ML purity: 99.43 % area
[2]; phosphate buffer, 25 °C, pH 6.8, aqueous buffer, pH 6.8 (Phosphate), attempt 1, 25° C., 24 h, pH after 24 h 1.01→6.87, read-out: Solub.
  solubility at 24 h: 12 mg/mL (≈ 19 mM)
[2]; phosphate buffer, 25 °C, pH 6.8, aqueous buffer, pH 6.8 (Phosphate), attempt 2, 25° C., 24 h, pH after 24 h 4.79→6.90, read-out: Solub.
  solubility at 24 h: 6.1 mg/mL (≈ 9.66 mM)
[3]
  7-day Stability studies: Purity compared to input: Purity similar
  7-day Stability studies: solid form: No change
[3]; [5]
  HPLC: 99.86 % area
  XRPD: 2
[3]; 7 days, 80° C. (closed vial)
  HPLC: 99.85 % area
  XRPD: 2
[3]; 7 days, Ambient (open vial)
  HPLC: 99.86 % area
  XRPD: 2
[3]; Input sample
  HPLC: 99.92 % area
  XRPD: 2

## COc1cc(C(=O)O[C@@H]2CCCOc3cc(cc(OC)c3OC)C(=O)NCCCN3CCCN(CC2)CC3)cc(OC)c1OC.O=S(=O)(O)O
[1]
  KF moisture content: 14.87% moisture
[2]; [6]
  ML purity: 99.82 % area
  Solub.: 36.7 mg/mL
[2]; [7]
  ML purity: 99.86 % area
  Solub.: 44.9 mg/mL
[2]; [8]
  ML purity: 99.69 % area
  Solub.: 124.2 mg/mL
[2]; [4]
  solution purity of the extracted mother liquors: > 98 % area
[2]; pH 1.2
  pH solubility: pH 1.2: 134 mg/mL
  pH solubility: residual solid: mg/mL, Form 4
[2]; [9]
  ML purity: >99.99 % area
  Solub.: 134.1 mg/mL
[2]; pH 1.2 and FeSSIF media, 25° C., 24 hours
  solubility: > 100 mg/mL
[2]; pH 4.5
  pH solubility: pH 4.5: 47 mg/mL
  pH solubility: residual solid: mg/mL, Form 4
[2]; [10]
  ML purity: 99.86 % area
  Solub.: 46.9 mg/mL
[2]; pH 6.8
  pH solubility: pH 6.8: 62 mg/mL
  pH solubility: residual solid: mg/mL, Gum
[2]; [11]
  ML purity: 98.30 % area
  Solub.: 62.0 mg/mL
[2]; the other media assessed, 25° C., 24 hours
  solubility: 30 to 80 mg/mL
[3]
  7-day Stability studies: Purity compared to input: Purity similar
  7-day Stability studies: solid form: Form 4 retained
[3]; 7 days, 40° C./75% RH
  solid form by XRPD after storage: retained
[3]; 7 days, 80° C.
  solid form by XRPD after storage: predominantly amorphous
[3]; 7 days, ambient conditions
  solid form by XRPD after storage: retained
[3]; at 80° C., printed 'crystallinity significantly reduced'
  7-day Stability studies: crystallinity: reduced at 80° C.)

— patent publication US20240327415A1, “Multicomponent Complexes, Including Salts, Crystalline Forms, and Hydrates and Solvates of ENT1 Inhibitors” (iTeos Belgium SA, priority 2023, published 2024)
